{"source": "patent US20230090446A1", "about": "“ANTISENSE OLIGONUCLEOTIDE TARGETING LINC00518 FOR TREATING MELANOMA” (UNIVERSITE DE STRASBOURG, priority 2020, published 2023)", "test_system": "LINC00518", "assay": "LINC00518 expression by RT-qPCR in cells treated with MAPK pathway inhibitors", "settings": "501Mel and A375 cells, between 12-72 hours after treatment", "protocol": "Activated Caspase 3 was measured by FACS.\nSamples were taken at the indicated time points, total RNA was extracted, retrotranscribed and analyzed by qPCR for LINC00518 expression. B. LINC00518 RNA levels were quantified from scRNAseq of melanoma patient derived xenotransplants (PDXs) treated with Dabrafenib and Trametinib (GSE116237). […] LINC00518 RNA levels were quantified from RNA sequencing of melanoma patients treated with Durvalumab and Trametinib for 15 days (GSE158403). […] Cytoplasmic and mitochondrial RNA fractions were extracted, retrotranscribed and analyzed by qPCR for LINC00518 expression. […] Oxygen consumption rate (OCR) was measured using Agilent Seahorse. Basal and Maximal OCR and reserve capacity were calculated on the basis of OCR changes upon oligomycin (oligo), FCCP and Rotenone A (RotA) administration to the cells.\nTotal mRNA isolation was performed using the Genelute Mammalian Total RNA Miniprep Kit (Sigma) following manufacturer instructions, or using Trizol and isopropanol precipitation. […] Total and fractionated RNAs were treated with DNAsel following the TurboDnase free kit instructions (Thermofisher) and reversed transcribed using Superscript IV reverse transcriptase (Thermofisher) following manufacturer instructions. qRT-PCR was carried out with SYBR Green I (Roche) and monitored by a LightCycler 480 (Roche). […]", "data": [{"molecule": "CC(C)(C)c1nc(-c2cccc(NS(=O)(=O)c3c(F)cccc3F)c2F)c(-c2ccnc(N)n2)s1", "note": "[Dabrafenib]", "values": [{"measurement": "LINC00518 expression", "value": "up-regulation"}]}]}
